Experimental data published in paper PMC7999658, “Characterization of P-Glycoprotein Inhibitors for Evaluating the Effect of P-Glycoprotein on the Intestinal Absorption of Drugs” (Pharmaceutics, 2021).
Read-outs that look alike come from different tables or passages of the source.

How the values were obtained:
in vivo [1] = details: FVB, mouse, oral, 10 mg/kg
[2] = paclitaxel 10 mg/kg po
[3] = for BA of paclitaxel: paclitaxel 20 mg/kg po vs 5 mg/kg IV
in vivo [4] = details: FVB, mouse
[5] = topotecan 2 mg/kg po; for concentration at 30 min: FVB, mouse, oral, 2 mg/kg
Protocol: Food and water were available ad libitum.
The flow rate was 1.0 mL/min.

Caco-2 cell monolayers = assay: Caco-2 monolayer transport study: paracellular marker permeability and mass balance (% recovery); format: in vitro ADME, human; details: Caco-2 monolayers, lucifer yellow 100 μM
[6] = systemic (abdominal vein) plasma
[7] = male, systemic (abdominal vein) plasma
[8] = paclitaxel 20 mg/kg po, WT mice
[9] = portal vein plasma, po, 20 mg/kg
[10] = systemic (abdominal vein) plasma, po, 20 mg/kg
[11] = male, portal vein plasma, po, 20 mg/kg
[12] = male, systemic (abdominal vein) plasma, po, 20 mg/kg

Question: Which results are given for CC(=O)O[C@H]1C(=O)[C@@]2(C)[C@H]([C@H](OC(=O)c3ccccc3)[C@]3(O)C[C@H](OC(=O)[C@H](O)[C@@H](NC(=O)c4ccccc4)c4ccccc4)C(C)=C1C3(C)C)[C@]1(OC(C)=O)CO[C@@H]1C[C@@H]2O [paclitaxel]?
Answer: concentration at 10 min (in vivo [1]; portal vein plasma): 967 nM; concentration at 30 min (in vivo [1]; portal vein plasma): 1090 ± 118 nM; concentration at 10 min (in vivo [1]; [6]): 218 ± 100 nM; concentration at 30 min (in vivo [1]; [6]): 245 ± 69 nM; concentration at 10 min (in vivo [1]; male, portal vein plasma): 439 nM; concentration at 30 min (in vivo [1]; male, portal vein plasma): 328 ± 41 nM; concentration at 10 min (in vivo [1]; [7]): 223 ± 76 nM; concentration at 30 min (in vivo [1]; [7]): 135 ± 41 nM; V of paclitaxel, mdr1a/1b KO mice versus WT mice ([2]; 10 min): approximately 3.5 fold; Absorption Rate V of paclitaxel ([2]; 10 min, WT mice, no inhibitor): 15.7 nmol/min/kg; Cpv of paclitaxel ([2]; 10 min, WT mice, no inhibitor): 439 ± 98 nM; Cpv − Csys of paclitaxel ([2]; 10 min, WT mice, no inhibitor): 216 ± 80 nM; Absorption Rate V of paclitaxel ([2]; 10 min, mdr1a/1b KO mice): 54.3 nmol/min/kg; Cpv of paclitaxel ([2]; 10 min, mdr1a/1b KO mice): 967 ± 191 nM; Cpv − Csys of paclitaxel ([2]; 10 min, mdr1a/1b KO mice): 749 ± 165 nM; V of paclitaxel, mdr1a/1b KO mice versus WT mice ([2]; 30 min): approximately 5.1 fold; Absorption Rate V of paclitaxel ([2]; 30 min, WT mice, no inhibitor): 12.4 nmol/min/kg; Cpv − Csys of paclitaxel ([2]; 30 min, WT mice, no inhibitor): 165 ± 61 nM; Absorption Rate V of paclitaxel ([2]; 30 min, mdr1a/1b KO mice): 63.7 nmol/min/kg; Cpv − Csys of paclitaxel ([2]; 30 min, mdr1a/1b KO mice): 847 ± 144 nM; t1/2 of paclitaxel ([3]; paclitaxel 5 mg/kg IV, WT mice): 2.38 h; AUCpv of paclitaxel, mdr1a/1b KO mice versus WT mice ([3]; paclitaxel 20 mg/kg po): 3.3 fold; AUCsys of paclitaxel, mdr1a/1b KO mice higher than WT mice ([3]; paclitaxel 20 mg/kg po): approximately 2.8 fold; BA of paclitaxel, mdr1a/1b KO mice versus WT mice ([3]; paclitaxel 20 mg/kg po): 2.5 fold; Cmax of paclitaxel in portal vein, mdr1a/1b KO mice versus WT mice ([3]; paclitaxel 20 mg/kg po): 3.5 fold; Cmax of paclitaxel in systemic circulation, mdr1a/1b KO mice versus WT mice ([3]; paclitaxel 20 mg/kg po): 2.7 fold; FaFg of paclitaxel, mdr1a/1b KO mice versus WT mice ([3]; paclitaxel 20 mg/kg po): 4.0 fold; BA of paclitaxel ([3]; WT mice): 11.7%; BA of paclitaxel ([3]; mdr1a/1b KO mice): 29.0%; FaFg of paclitaxel [3, 8]: 16.6%; Fh of paclitaxel [3, 8]: 70.6; FaFg of paclitaxel ([3]; paclitaxel 20 mg/kg po, mdr1a/1b KO mice): 66.3%; t1/2 of paclitaxel ([3]; paclitaxel 20 mg/kg po, mdr1a/1b KO mice, pv): 1.25 h; Cmax ([3]; read-out: Cmax of paclitaxel, paclitaxel 20 mg/kg po, mdr1a/1b KO mice, pv): 2520 nM; AUC (in vivo [4]; plasma, iv, 5 mg/kg): 2.66 µM·h; MRT (in vivo [4]; plasma, iv, 5 mg/kg): 1.47 h; Vd (in vivo [4]; plasma, iv, 5 mg/kg): 4.15 L/kg; clearance (in vivo [4]; plasma, iv, 5 mg/kg): 36.7 mL/min/kg; half-life (in vivo [4]; plasma, iv, 5 mg/kg): 127 min; AUC (in vivo [4]; [9]): 6.58 µM·h; MRT (in vivo [4]; [9]): 2.16 h; Tmax (in vivo [4]; [9]): 1 h; k el (in vivo [4]; [9]): 0.000153 s⁻¹; AUC (in vivo [4]; [10]): 3.09 µM·h; Cmax (in vivo [4]; [10]): 1180 nM; MRT (in vivo [4]; [10]): 3.09 h; Tmax (in vivo [4]; [10]): 1 h; k el (in vivo [4]; [10]): 9.72e-05 s⁻¹; half-life (in vivo [4]; systemic plasma, po, 20 mg/kg): 120 min; AUC (in vivo [4]; male, plasma, iv, 5 mg/kg): 2.32 µM·h; MRT (in vivo [4]; male, plasma, iv, 5 mg/kg): 1.71 h; Vd (in vivo [4]; male, plasma, iv, 5 mg/kg): 4.32 L/kg; clearance (in vivo [4]; male, plasma, iv, 5 mg/kg): 42 mL/min/kg; AUC (in vivo [4]; [11]): 2 µM·h; Cmax (in vivo [4]; [11]): 730 nM; MRT (in vivo [4]; [11]): 2.51 h; Tmax (in vivo [4]; [11]): 1 h; half-life (in vivo [4]; [11]): 97.2 min; k el (in vivo [4]; [11]): 0.000119 s⁻¹; AUC (in vivo [4]; [12]): 1.09 µM·h; Cmax (in vivo [4]; [12]): 442 nM; MRT (in vivo [4]; [12]): 2.29 h; Tmax (in vivo [4]; [12]): 1 h; k el (in vivo [4]; [12]): 0.000139 s⁻¹; half-life (in vivo [4]; male, systemic plasma, po, 20 mg/kg): 82.2 min

Question: For CC[C@@]1(O)C(=O)OCc2c1cc1n(c2=O)Cc2cc3c(CN(C)C)c(O)ccc3nc2-1 [topotecan], which concentration at 30 min ([5]; plasma (portal vein), Cpv of topotecan, mdr1a/1b KO mice) is on record?
Answer: 236 ± 30 nM

Question: What about the concentration at 30 min ([5]; plasma (systemic circulation, abdominal vein), Csys of topotecan, bcrp KO mice) of the same compound?
Answer: 398 ± 88 nM

Question: And the concentration at 30 min ([5]; plasma (systemic circulation, abdominal vein), Csys of topotecan, mdr1a/1b KO mice)?
Answer: 207 ± 28 nM

Question: What about the concentration at 30 min ([5]; portal vein plasma, Cpv of topotecan, bcrp KO mice) of the same compound?
Answer: 469 nM

Question: And the concentration at 30 min ([5]; male, plasma (systemic circulation, abdominal vein), Csys of topotecan, WT mice, no inhibitor)?
Answer: 179 ± 25 nM

Question: What about the concentration at 30 min ([5]; male, portal vein plasma, Cpv of topotecan, WT mice, no inhibitor) of the same compound?
Answer: 196 ± 29 nM

Question: And the “V of topotecan, bcrp KO mice versus WT mice” value ([5]; 30 min)?
Answer: approximately 4.1 fold

Question: What about the “V of topotecan, bcrp KO mice versus mdr1a/1b KO mice” value ([5]; 30 min) of the same compound?
Answer: ~2.4 fold

Question: What about the “Absorption Rate V of topotecan” value ([5]; 30 min, WT mice, no inhibitor) of the same compound?
Answer: 1.29 nmol/min/kg

Question: And the “Cpv − Csys of topotecan” value ([5]; 30 min, WT mice, no inhibitor)?
Answer: 17.1 ± 5.7 nM

Question: And the “Absorption Rate V of topotecan” value ([5]; 30 min, bcrp KO mice)?
Answer: 5.30 nmol/min/kg

Question: And the Cpv of topotecan ([5]; 30 min, bcrp KO mice)?
Answer: 469 ± 64 nM

Question: And the “Cpv − Csys of topotecan” value ([5]; 30 min, bcrp KO mice)?
Answer: 70.5 ± 20 nM

Question: And the “Absorption Rate V of topotecan” value ([5]; 30 min, mdr1a/1b KO mice)?
Answer: 2.17 nmol/min/kg

Question: And the “Cpv − Csys of topotecan” value ([5]; 30 min, mdr1a/1b KO mice)?
Answer: 28.9 ± 8.4 nM

Question: For lucifer yellow, which “Papp,AB” value (Caco-2 cell monolayers) is on record?
Answer: 1e-07 cm/s
